Earlier results on one compound are cited in patent publication US20230172904A1, “COMBINATION OF AN ANTIALLERGIC AGENT WITH MUSCARINIC ANTAGONIST AND/OR DOPAMINERGIC AGONIST FOR USE IN PREVENTING/STOPPING OF AXIAL MYOPIA IN HUMAN” (priority 2016, published 2023).

Molecules are shown by their SMILES.

Data set [1] deals with axial myopia. The conditions noted are these: one drop of 1% Atropine collyrium at bedtime, chinese children, placebo controlled.
The test system of data set [2] is axial myopia.

Regarding `CN1[C@@H]2CC[C@H]1C[C@@H](OC(=O)C(CO)c1ccccc1)C2` (stereo partly drawn) [Atropine], the “subjects in whom the development of axial myopia was halted (stopping the elongation of the bulb)” value in the data set with axial myopia [1] was 90%. Moreover, the “effect on myopia at reduced doses” value with axial myopia [2] (dose reduced to 0.1%, 0.05% and 0.01%, children) is reported as “dose dependent effect of atropine that is still acceptable at the lower concentration”. In the data set with axial myopia [2] (pediatric population, allergic response of the conjunctiva), the “subjects who developed ocular redness and itching” value is recorded as “around 5%”.
